Patent publication US7713994B2 (Wyeth LLC, priority 2005, dated 2010)
Like-named read-outs stand apart in the source and are kept apart here.

How the values were obtained:
cyclin D1/cdk 4 enzyme = biological target: T1, cyclin D1/cdk 4 enzyme (Homo sapiens, UniProt P11802); assay: CDK4 ELISA kinase assay (phospho-Rb ser 795 detection); format: biochemical; conditions: In Vitro Enzyme Assays, 200 μM ATP, read-out: CDK4 IC50
T1 construct: made in house; host or cells: Sf9 insect cells, recombinant baculovirus
Outline: (§1)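 GST-Rb C-terminal fragment coated on plates; partially purified Sf9-expressed cyclin D1/CDK4, cyclin E/CDK2 or cyclin B/CDK1 with 200 μM ATP, pH 7.5 HEPES/MgCl2 buffer, 1 h at 30 °C; screen compound final 10 μg/ml. Phospho-Rb Ser795 detected by antibody ELISA (TMB, A450); % of control, IC50 from background-subtracted inhibition curves.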

cyclin E/CDK2 enzyme = biological target: T2, cyclin E/CDK2 enzyme (Homo sapiens, UniProt P24941); assay: CDK2 ELISA kinase assay (phospho-Rb ser 795 detection); format: biochemical; conditions: In Vitro Enzyme Assays, read-out: CDK2 IC50
T2 construct: made in house; host or cells: Sf9 insect cells, recombinant baculovirus
Outline: as §1

cyclin B/CDK1 enzyme = biological target: T3, cyclin B/CDK1 enzyme (Homo sapiens, UniProt P06493); assay: CDK1 ELISA kinase assay (phospho-Rb ser 795 detection); format: biochemical; conditions: In Vitro Enzyme Assays, read-out: CDK1 IC50
T3 construct: purchased New England BioLabs; host or cells: Sf9 insect cells, recombinant baculovirus
Outline: as §1

BT474 = assay: Cytotoxicity assay (SRB), BT474; format: cell-based; conditions: Homo sapiens, BT-474, 144 h, read-out: In Vitro Cellular Activity IC50 BT474
Outline: (§2)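 Seeding: BT474 12000, HCT-116 4000, LoVo 6000, MCF-7 6000 cells/well; overnight attachment, 37 °C, 7% CO2. Drug exposure 3 d (BT474 6 d), RPMI 1640 + 5% FBS. Readout: TCA fix, 0.4% SRB, Tris solubilisation, A540.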

HCT-116 = assay: Cytotoxicity assay (SRB), HCT-116; format: cell-based; conditions: Homo sapiens, HCT-116, 72 h, read-out: In Vitro Cellular Activity IC50 HCT116
Outline: as §2

LoVo = assay: Cytotoxicity assay (SRB), LoVo; format: cell-based; conditions: Homo sapiens, LoVo, 72 h, read-out: In Vitro Cellular Activity IC50 LOVO
Outline: as §2

MCF-7 = assay: Cytotoxicity assay (SRB), MCF-7; format: cell-based; conditions: Homo sapiens, MCF7, 72 h, read-out: In Vitro Cellular Activity IC50 MCF-7
Outline: as §2

T3 sequence (P06493 whole entry): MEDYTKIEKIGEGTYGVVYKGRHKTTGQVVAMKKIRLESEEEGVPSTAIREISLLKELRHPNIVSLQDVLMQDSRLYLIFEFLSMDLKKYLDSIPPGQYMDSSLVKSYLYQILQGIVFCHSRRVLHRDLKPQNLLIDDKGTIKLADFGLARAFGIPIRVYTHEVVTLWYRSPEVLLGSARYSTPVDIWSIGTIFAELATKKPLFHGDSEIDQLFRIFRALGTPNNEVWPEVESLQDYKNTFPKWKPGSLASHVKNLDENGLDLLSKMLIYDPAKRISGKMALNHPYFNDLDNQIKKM
T3 sequence (P14635 whole entry partner): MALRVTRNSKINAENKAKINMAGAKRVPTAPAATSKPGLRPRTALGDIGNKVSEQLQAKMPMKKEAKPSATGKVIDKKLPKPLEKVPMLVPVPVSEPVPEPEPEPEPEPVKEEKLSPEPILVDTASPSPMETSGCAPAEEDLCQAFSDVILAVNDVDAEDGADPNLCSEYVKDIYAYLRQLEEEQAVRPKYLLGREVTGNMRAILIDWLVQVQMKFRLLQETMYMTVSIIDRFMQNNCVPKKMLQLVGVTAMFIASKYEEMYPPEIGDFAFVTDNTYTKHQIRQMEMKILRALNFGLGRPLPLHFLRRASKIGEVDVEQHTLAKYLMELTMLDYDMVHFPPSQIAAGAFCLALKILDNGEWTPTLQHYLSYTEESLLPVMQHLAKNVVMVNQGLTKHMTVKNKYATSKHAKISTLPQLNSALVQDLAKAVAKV
T1 sequence (P11802 whole entry, species assumed): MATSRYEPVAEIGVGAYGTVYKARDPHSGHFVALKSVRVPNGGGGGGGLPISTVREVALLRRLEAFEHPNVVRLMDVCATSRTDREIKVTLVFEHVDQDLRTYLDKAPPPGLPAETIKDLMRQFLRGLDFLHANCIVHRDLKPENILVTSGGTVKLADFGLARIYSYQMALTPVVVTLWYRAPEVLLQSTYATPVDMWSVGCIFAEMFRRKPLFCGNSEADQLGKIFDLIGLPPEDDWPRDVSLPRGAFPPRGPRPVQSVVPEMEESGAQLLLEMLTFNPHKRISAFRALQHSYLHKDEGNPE
T1 sequence (P24385 whole entry partner, species assumed): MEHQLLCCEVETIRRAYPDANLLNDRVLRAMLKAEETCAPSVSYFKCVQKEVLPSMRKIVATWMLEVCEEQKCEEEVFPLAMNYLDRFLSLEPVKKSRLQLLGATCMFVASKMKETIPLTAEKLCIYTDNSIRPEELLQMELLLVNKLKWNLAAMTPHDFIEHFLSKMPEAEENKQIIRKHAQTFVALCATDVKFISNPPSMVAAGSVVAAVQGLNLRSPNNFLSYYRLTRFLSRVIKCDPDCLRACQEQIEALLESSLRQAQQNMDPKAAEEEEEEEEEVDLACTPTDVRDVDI

| Structure (SMILES) | IC50 (cyclin D1/cdk 4 enzyme) [µM] | IC50 (cyclin E/CDK2 enzyme) [µM] | IC50 (cyclin B/CDK1 enzyme) [µM] | melting point | IC50 (BT474; BT474 cells, SRB, 6 days) [µM] | IC50 (HCT-116; HCT116 cells, SRB, three days) [µM] | IC50 (LoVo; LoVo cells, SRB, three days) [µM] | IC50 (MCF-7; MCF-7 cells, SRB, three days) [µM] | IC50 (BT474) [µM] | IC50 (HCT-116) [µM] | IC50 (LoVo) [µM] | IC50 (MCF-7) [µM] |
| --- | --- | --- | --- | --- | --- | --- | --- | --- | --- | --- | --- | --- |
| O=C1NCc2ccccc2C1=CNc1ccc(CCN2CCCC2)cc1 [Example 170, 4-{[4-(2-Pyrrolidin-1-yl-ethyl)-phenylamino]-methylene}-1,4-dihydro-2H-isoquinolin-3-one] | 46.5 | > 50 | > 50 | 169 to 173 °C (dec.) | 27 | 6.2 | 21 | 11 |  |  |  |  |
| CN1CCN(c2ccc(N/C=C3\C(=O)NC(=O)c4ccc(C#Cc5ccccc5)cc43)cc2)CC1 [Example 171, (4Z)-4-({[4-(4-Methylpiperazin-1-yl)phenyl]amino}methylene)-6-(phenylethynyl)-isoquinoline-1,3(2H,4H)-dione] | 2.3 | > 50 | 33.2 | 169 to 170 °C | 5.1 | 1.2 | 9.7 | 3 |  |  |  |  |
| COc1ccc(C#Cc2ccc3c(c2)/C(=C/Nc2ccc(N4CCN(C)CC4)cc2)C(=O)NC3=O)cc1 [Example 172, (4Z)-6-[(4-Methoxyphenyl)ethynyl]-4-({[4-(4-methylpiperazin-1-yl)phenyl]amino}-methylene)isoquinoline-1,3(2H,4H)-dione] | 23.6 | > 50 | 23.6 | 155 to 156 °C | 17 | 8.7 | > 50 | > 50 |  |  |  |  |
| O=C1NC(=O)c2ccc(Br)cc2/C1=C/Nc1ccc(CCN2CCCC2)cc1 [Example 176, 6-Bromo-4-{[4-(2-pyrrolidin-1-yl-ethyl)-phenylamino]-methylene}-4H-isoquinolin-1,3-dione] | 1.3 | > 50 | > 50 | 212 to 214 °C (dec.) | 7.2 | 3.4 | 4.5 | 3.8 |  |  |  |  |
| COCC#Cc1ccc2c(c1)/C(=C/Nc1ccc(N3CCN(C)CC3)cc1)C(=O)NC2=O [Example 177, (4Z)-6-(3-Methoxyprop-1-ynyl)-4-({[4-(4-methylpiperazin-1-yl)phenyl]amino}-methylene)isoquinoline-1,3(2H,4H)-dione] | 1.1 | > 50 | > 50 | 209 to 210 °C | 3.9 | 3.1 | 3.9 | 4.1 |  |  |  |  |
| O=C1NC(=O)c2ccc(Br)cc2/C1=C/NCc1ccc(OC(F)F)c(O)c1 [Example 180] | 0.07 | > 50 | > 50 | 256 to 258 °C | 5.1 | 5.9 | 6.2 | 15 |  |  |  |  |
| CN1CCN(c2ccc(N/C=C3\C(=O)NC(=O)c4ccc(-c5ccc(-c6cccs6)s5)cc43)cc2)CC1 [Example 182, (4Z)-6-(2,2′-Bithien-5-yl)-4-({[4-(4-methylpiperazin-1-yl)phenyl]amino}methylene)-isoquinoline-1,3(2H,4H)-dione] | 2.3 | > 50 | 2.3 | 204 to 205 °C |  |  |  |  | 17 | > 50 | > 50 | > 50 |
| COC(=O)Nc1ccc(CN/C=C2\C(=O)NC(=O)c3ccc(Br)cc32)cc1OC(=O)OC [Example 184, 5-({[(Z)-(6-Bromo-1,3-dioxo-2,3-dihydroisoquinolin-4(1H)-′ylidene)methyl]amino}methyl)-2-[(methoxycarbonyl)amino]phenyl methyl carbonate] | 6 | 41.5 | > 50 | 179 to 180 °C | 8.5 | 13 | 20 | 50 |  |  |  |  |

Further lines, with some results ahead:

| IC50 (cyclin D1/cdk 4 enzyme) [µM] | IC50 (cyclin E/CDK2 enzyme) [µM] | IC50 (cyclin B/CDK1 enzyme) [µM] | melting point | Structure (SMILES) | IC50 (BT474; BT474 cells, SRB, 6 days) [µM] | IC50 (HCT-116; HCT116 cells, SRB, three days) [µM] | IC50 (LoVo; LoVo cells, SRB, three days) [µM] | IC50 (MCF-7; MCF-7 cells, SRB, three days) [µM] | IC50 (BT474) [µM] | IC50 (HCT-116) [µM] | IC50 (LoVo) [µM] | IC50 (MCF-7) [µM] |
| --- | --- | --- | --- | --- | --- | --- | --- | --- | --- | --- | --- | --- |
| 2.3 | 3.3 | 1.7 | 193 to 194 °C | CN1CCN(c2ccc(N/C=C3\C(=O)NC(=O)c4ccc(C#Cc5ccsc5)cc43)cc2)CC1 [Example 187, (4Z)-4-({[4-(4-Methylpiperazin-1-yl)phenyl]amino}methylene)-6-(thien-3-ylethynyl)-isoquinoline-1,3(2H,4H)-dione] | 2.9 | 1.1 | 8.5 | 3 |  |  |  |  |
| 33.2 | 39.7 | 24.2 | 289 to 290 °C | CN1CCN(c2ccc(N/C=C3\C(=O)NC(=O)c4ccc(NS(=O)(=O)c5ccccc5)cc43)cc2)CC1 [Example 188, 1,2,3,4-Tetrahydroisoquinolin-6-yl]benzenesulfonamide′N-[(4Z)-4-({[4-(4-methylpiperazin-1-yl)phenyl]amino}methylene)-1,3-dioxo] | 3.3 | 2.2 | 11 | 12 |  |  |  |  |
| 0.04 | > 50 | > 50 | 194 to 195 °C | CCCOc1ccc(CN/C=C2\C(=O)NC(=O)c3ccc(-c4ccc(F)cc4)cc32)cc1O [Example 192, (4Z)-6-(4-Fluorophenyl)-4-{[(3-hydroxy-4-propoxybenzyl)amino]methylene}-isoquinoline-1,3(2H,4H)-dione] | 16 | 6.8 | 40 | 2.4 |  |  |  |  |
| 1.1 | 40.6 | > 50 | 245 to 246 °C | COc1ccc(CN/C=C2\C(=O)NC(=O)c3ccc(NS(=O)(=O)c4ccccc4)cc32)cc1O [Example 196, N-((4Z)-4-{[(3-Hydroxy-4-methoxybenzyl)amino]methylene}-1,3-dioxo-1,2,3,4-′tetrahydroisoquinolin-6-yl)benzenesulfonamide] | 37 | 35 | 37 | 38 |  |  |  |  |
| 4.1 | > 50 | > 50 | 229 to 230 °C | CC1CN(c2ccc(N/C=C3\C(=O)NC(=O)c4ccc(Br)cc43)cc2)CC(C)N1 (centres unmarked) [Example 201] | 1.4 | 1.1 | 1.4 | 1.7 |  |  |  |  |
